Ki data for 2 compounds are collected here from BindingDB's records for doi:10.1016/j.ejphar.2004.03.050 (Memorial Sloan-Kettering Cancer Center, 2004).

Where “and” joins values, the source holds several entries; their conditions need not be identical. Equal entries are not always repeated.

A word on the Ki: it is a dissociation constant, usually derived from enzyme kinetics or from competition with a known ligand.

The target in one test is Mu-type opioid receptor (Bos taurus, UniProt P79350).
Sequence of Mu-type opioid receptor (P79350 whole entry): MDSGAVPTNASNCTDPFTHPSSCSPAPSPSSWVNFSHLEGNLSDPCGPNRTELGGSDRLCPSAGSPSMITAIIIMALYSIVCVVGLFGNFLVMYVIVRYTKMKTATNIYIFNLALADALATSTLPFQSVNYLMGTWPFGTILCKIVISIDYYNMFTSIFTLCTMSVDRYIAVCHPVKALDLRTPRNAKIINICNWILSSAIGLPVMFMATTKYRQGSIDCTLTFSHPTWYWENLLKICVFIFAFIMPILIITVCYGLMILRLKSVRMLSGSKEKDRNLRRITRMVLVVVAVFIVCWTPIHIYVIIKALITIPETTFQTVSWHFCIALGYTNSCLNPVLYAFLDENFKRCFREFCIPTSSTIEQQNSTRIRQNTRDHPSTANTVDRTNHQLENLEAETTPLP
The target in a further test is Opioid receptor delta 1 (Bos taurus, UniProt F1N083).
Sequence of Opioid receptor delta 1 (F1N083 whole entry): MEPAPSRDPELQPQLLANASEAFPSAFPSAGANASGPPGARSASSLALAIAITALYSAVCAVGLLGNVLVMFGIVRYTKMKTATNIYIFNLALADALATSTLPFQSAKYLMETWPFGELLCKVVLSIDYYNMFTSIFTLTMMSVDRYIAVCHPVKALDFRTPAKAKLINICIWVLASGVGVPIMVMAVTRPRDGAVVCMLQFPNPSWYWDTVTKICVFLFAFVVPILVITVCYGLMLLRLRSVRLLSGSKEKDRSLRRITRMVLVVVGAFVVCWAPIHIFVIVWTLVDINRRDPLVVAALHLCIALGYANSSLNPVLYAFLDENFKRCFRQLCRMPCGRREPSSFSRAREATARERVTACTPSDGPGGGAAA

On to `CC(=O)OC1CCC2C3Cc4ccc(O)c5c4C2(CCN3C)C1O5` (configuration not stated) [6-AcDHM], for which the inhibition constant Ki at Mu-type opioid receptor was 1.83 nM and 12.3 nM.

With `CN1CCC23c4c5ccc(O)c4OC2C(O)CCC3C1C5` (configuration not stated) [CAS_509-60-4], the affinity at Opioid receptor delta 1 corresponds to a Ki of 1000 nM.
